Key:
Assay in all cases: relative viability (nuclei count vs DMSO), 5 days (fraction); higher = more cells survive
[1] = tested on: ABC-1
Method in brief: (§1)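 Relative viability is defined as nuclei in treated wells over nuclei in vehicle wells. Duplicate plates were run and medians reported. Lung cancer cell lines in 1536-well plates were dosed by pin tool one day after seeding, with one drug or with a fixed anchor-drug dose plus five library-drug doses (not always all listed) in √10 steps, and nuclei were counted after 5 days.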

[2] = tested on: CAL-12T
Method in brief: as §1

[3] = tested on: ChaGo-K-1
Method in brief: as §1

[4] = tested on: HCC-366
Method in brief: as §1

[5] = tested on: HCC-78
Method in brief: as §1

[6] = tested on: LC-2-ad
Method in brief: as §1

[7] = tested on: LOU-NH91
Method in brief: as §1

[8] = tested on: LU99A
Method in brief: as §1

[9] = tested on: NCI-H1395
Method in brief: as §1

[10] = tested on: NCI-H1651
Method in brief: as §1

[11] = tested on: NCI-H1755
Method in brief: as §1

[12] = tested on: NCI-H1793
Method in brief: as §1

[13] = tested on: NCI-H1944
Method in brief: as §1

[14] = tested on: NCI-H2087
Method in brief: as §1

[15] = tested on: NCI-H2170
Method in brief: as §1

[16] = tested on: NCI-H2228
Method in brief: as §1

[17] = tested on: NCI-H2405
Method in brief: as §1

[18] = tested on: NCI-H3122
Method in brief: as §1

[19] = tested on: NCI-H460
Method in brief: as §1

[20] = tested on: PC-3 [JPC-3]
Method in brief: as §1

[21] = tested on: RERF-LC-KJ
Method in brief: as §1

[22] = tested on: UMC-11
Method in brief: as §1

Cc1sc2c(c1C)C(c1ccc(Cl)cc1)=N[C@@H](CC(=O)OC(C)(C)C)c1nnc(C)n1-2 [JQ1] + O=C(CCCCCCC(=O)Nc1ccccc1)NO [Vorinostat] (partner 1 µM)
relative viability ([1]; first compound 0.04 µM): 0.963
relative viability ([1]; first compound 0.1265 µM): 0.557
relative viability ([1]; first compound 0.4 µM): 0.703
relative viability ([1]; first compound 1.265 µM): 0.41
relative viability ([1]; first compound 4 µM): 0.296
relative viability ([2]; first compound 0.04 µM): 0.853
relative viability ([2]; first compound 0.1265 µM): 0.838
relative viability ([2]; first compound 0.4 µM): 0.685
relative viability ([2]; first compound 1.265 µM): 0.238
relative viability ([2]; first compound 4 µM): 0.217
relative viability ([3]; first compound 0.04 µM): 0.752
relative viability ([3]; first compound 0.1265 µM): 0.57
relative viability ([3]; first compound 0.4 µM): 0.639
relative viability ([3]; first compound 1.265 µM): 0.505
relative viability ([3]; first compound 4 µM): 0.491
relative viability ([4]; first compound 0.04 µM): 0.409
relative viability ([4]; first compound 0.4 µM): 0.138
relative viability ([4]; first compound 1.265 µM): 0.0461
relative viability ([4]; first compound 4 µM): 0.042
relative viability ([5]; first compound 0.04 µM): 0.436
relative viability ([5]; first compound 0.1265 µM): 0.398
relative viability ([5]; first compound 0.4 µM): 0.466
relative viability ([5]; first compound 1.265 µM): 0.312
relative viability ([5]; first compound 4 µM): 0.329
relative viability ([6]; first compound 0.04 µM): 0.699
relative viability ([6]; first compound 0.1265 µM): 0.396
relative viability ([6]; first compound 0.4 µM): 0.624
relative viability ([6]; first compound 1.265 µM): 0.273
relative viability ([6]; first compound 4 µM): 0.3
relative viability ([7]; first compound 0.04 µM): 0.912
relative viability ([7]; first compound 0.1265 µM): 0.718
relative viability ([7]; first compound 0.4 µM): 0.442
relative viability ([7]; first compound 1.265 µM): 0.388
relative viability ([7]; first compound 4 µM): 0.402
relative viability ([8]; first compound 0.04 µM): 0.61
relative viability ([8]; first compound 0.4 µM): 0.363
relative viability ([8]; first compound 1.265 µM): 0.278
relative viability ([8]; first compound 4 µM): 0.188
relative viability ([9]; first compound 0.04 µM): 0.662
relative viability ([9]; first compound 0.1265 µM): 0.619
relative viability ([9]; first compound 0.4 µM): 0.694
relative viability ([9]; first compound 1.265 µM): 0.479
relative viability ([9]; first compound 4 µM): 0.473
relative viability ([10]; first compound 0.04 µM): 0.615
relative viability ([10]; first compound 0.1265 µM): 0.472
relative viability ([10]; first compound 0.4 µM): 0.445
relative viability ([10]; first compound 1.265 µM): 0.416
relative viability ([10]; first compound 4 µM): 0.307
relative viability ([11]; first compound 0.04 µM): 0.822
relative viability ([11]; first compound 0.1265 µM): 0.579
relative viability ([11]; first compound 0.4 µM): 0.693
relative viability ([11]; first compound 1.265 µM): 0.651
relative viability ([11]; first compound 4 µM): 0.552
relative viability ([12]; first compound 0.04 µM): 0.722
relative viability ([12]; first compound 0.1265 µM): 0.853
relative viability ([12]; first compound 0.4 µM): 0.664
relative viability ([12]; first compound 1.265 µM): 0.548
relative viability ([12]; first compound 4 µM): 0.508
relative viability ([13]; first compound 0.04 µM): 0.524
relative viability ([13]; first compound 0.1265 µM): 0.405
relative viability ([13]; first compound 0.4 µM): 0.325
relative viability ([13]; first compound 1.265 µM): 0.323
relative viability ([13]; first compound 4 µM): 0.29
relative viability ([14]; first compound 0.04 µM): 0.63
relative viability ([14]; first compound 0.1265 µM): 0.38
relative viability ([14]; first compound 0.4 µM): 0.668
relative viability ([14]; first compound 1.265 µM): 0.316
relative viability ([14]; first compound 4 µM): 0.127
relative viability ([15]; first compound 0.04 µM): 0.866
relative viability ([15]; first compound 0.1265 µM): 0.609
relative viability ([15]; first compound 0.4 µM): 0.513
relative viability ([15]; first compound 1.265 µM): 0.472
relative viability ([15]; first compound 4 µM): 0.243
relative viability ([16]; first compound 0.04 µM): 0.605
relative viability ([16]; first compound 0.1265 µM): 0.826
relative viability ([16]; first compound 0.4 µM): 0.377
relative viability ([16]; first compound 1.265 µM): 0.316
relative viability ([16]; first compound 4 µM): 0.168
relative viability ([17]; first compound 0.04 µM): 1.03
relative viability ([17]; first compound 0.4 µM): 0.79
relative viability ([17]; first compound 1.265 µM): 0.413
relative viability ([17]; first compound 4 µM): 0.276
relative viability ([18]; first compound 0.04 µM): 1.01
relative viability ([18]; first compound 0.1265 µM): 0.506
relative viability ([18]; first compound 0.4 µM): 1.02
relative viability ([18]; first compound 1.265 µM): 1.04
relative viability ([18]; first compound 4 µM): 0.664
relative viability ([19]; first compound 0.04 µM): 0.672
relative viability ([19]; first compound 0.1265 µM): 0.621
relative viability ([19]; first compound 0.4 µM): 0.18
relative viability ([19]; first compound 1.265 µM): 0.0632
relative viability ([19]; first compound 4 µM): 0.0462
relative viability ([20]; first compound 0.04 µM): 0.816
relative viability ([20]; first compound 0.1265 µM): 0.716
relative viability ([20]; first compound 0.4 µM): 0.67
relative viability ([20]; first compound 1.265 µM): 0.537
relative viability ([20]; first compound 4 µM): 0.377
relative viability ([21]; first compound 0.04 µM): 0.68
relative viability ([21]; first compound 0.1265 µM): 0.517
relative viability ([21]; first compound 0.4 µM): 0.44
relative viability ([21]; first compound 1.265 µM): 0.407
relative viability ([21]; first compound 4 µM): 0.223
relative viability ([22]; first compound 0.04 µM): 0.326
relative viability ([22]; first compound 0.1265 µM): 0.317
relative viability ([22]; first compound 0.4 µM): 0.223
relative viability ([22]; first compound 1.265 µM): 0.141
relative viability ([22]; first compound 4 µM): 0.165
